Results taken from paper PMC2642983 (AIDS (London, England), 2009).
Where two headings read alike, the source gives them in different places. Marks after values point to notes of the source that are not given here.

Experiments:
[1] = Population pharmacokinetic modelling; type: in vivo, human; settings: for CSF penetration (% of plasma concentration): modeled estimate
HIV RNA in the CSF [2] = assay: Detectable HIV RNA in CSF by CSF atazanavir detectability; type: in vivo
wild-type HIV = settings: estimated with no protein (protein-free medium); cited from earlier work
plasma proteins = settings: no reference given; cited from earlier work
[3] = cited from earlier work
[4] = for CSF concentrations fold lower than plasma concentrations: even with ritonavir boosting
HIV RNA in the CSF [5] = settings: over 3 weeks, all 13 participants receiving monotherapy; cited from earlier work
[6] = atazanavir with ritonavir, listed as atazanavir

COC(=O)N[C@H](C(=O)N[C@@H](Cc1ccccc1)[C@@H](O)CN(Cc1ccc(-c2ccccn2)cc1)NC(=O)[C@@H](NC(=O)OC)C(C)(C)C)C(C)(C)C [Atazanavir, atazanavir]
Intersubject variability of ke ([1]; atazanavir with ritonavir): 17% | Residual variability of CSF concentrations ([1]; atazanavir with ritonavir): 26% | Residual variability of plasma concentrations ([1]; atazanavir with ritonavir): 49% | oral clearance ([1]; atazanavir with ritonavir, corresponds to ke and Vd/F): 9.4 L/h | Residual variability of CSF concentrations [1, 6]: 26% | Residual variability of plasma concentrations [1, 6]: 49% | CSF penetration (% of plasma concentration) ([1]; atazanavir with ritonavir): 0.0074 (0.74%) | CSF penetration (% of plasma concentration) [1, 6]: 0.74% | Vd/F ([1]; human, plasma, oral): 209 L | half-life ([1]; human, plasma, oral): 15 h | k el ([1]; human, plasma, oral): 1.25e-05 s⁻¹ | participants with measurable CSF HIV RNA (HIV RNA in the CSF [2]; 12/60 participants with more than 5 ng/ml atazanavir in the CSF, P = 0.13): 20% | participants with detectable (>50 copies/ml) HIV RNA in the CSF (HIV RNA in the CSF [2]; seven of 19 participants with no measurable atazanavir in the CSF): 37% | wild-type IC50 (wild-type HIV): 1 ng/mL | bound to plasma proteins (plasma proteins): 86% | free (not bound to plasma proteins) (plasma proteins): 14% | atazanavir CSF concentrations, average % of plasma concentrations ([3]; in vivo): 0.9% | CSF atazanavir concentrations as % of plasma concentrations ([3]; seven HIV-infected patients): approximately 1% | median (IQR) plasma concentration (11 samples with no detectable CSF atazanavir but measurable plasma atazanavir): 315 (280–432) ng/ml | estimated free concentration of atazanavir in plasma (14% of 1510 ng/ml): approximately 210 ng/ml | plasma samples with undetectable atazanavir (<0.13 μg/ml, 17 of 149 samples): 11% | Median (interquartile range) plasma atazanavir concentration (atazanavir alone, without ritonavir): 523 (283–1344) ng/ml | median (IQR) plasma concentration (corresponding to the 60 CSF samples with detectable atazanavir): 1743 (925–2919) ng/ml | Median (interquartile range) plasma atazanavir concentration (with concomitant ritonavir): 1278 (525–2265) ng/ml | Median (range) plasma concentration (with ritonavir 100 mg daily, 130 plasma samples): 1278 (<128–5295) ^* ng/ml | Median (range) plasma concentration (without ritonavir, 18 plasma samples, 300 or 400 mg atazanavir daily): 523 (<128–6200) ng/ml | CSF specimens with concentrations near the protein-free IC50 (<5 ng/ml) ([4]; 11/67, after excluding probable nonadherence): 16% | CSF samples with undetectable atazanavir ([4]; <5 ng/ml, 19 of 79 samples): 24% | observed CSF concentrations ([4]; as summarised in the discussion): 10 ng/mL | CSF concentrations fold lower than plasma concentrations [4]: about 100 fold | CSF concentrations fold lower than plasma concentrations ([4]; listed as atazanavir): 100 fold | Kp ([4]; human, CSF, oral): < 0.01 | Median (interquartile range) CSF concentration ([4]; with ritonavir): 10.3 (<5–21.1) ng/ml | Median (range) CSF concentration ([4]; with ritonavir, 68 CSF samples): 10.3 (<5–38) ^† ng/ml | Median (interquartile range) CSF concentration ([4]; without ritonavir): 7.9 (6.6–22) ng/ml | Median (range) CSF concentration ([4]; without ritonavir, 11 CSF samples): 7.9 (<5–40) ng/ml

lopinavir/ritonavir
change in CSF HIV RNA levels (HIV RNA in the CSF [5]): substantial declines in CSF HIV RNA levels
